# From patent publication US8084466B2, “Bicyclic heteroaryl-substituted imidazoles as modulators of the histamine H4 receptor” (Janssen Pharmaceutica NV, priority 2007, dated 2011)
# pKi: −log10 of the molar value.
# Biological target: T1, human histamine H4 receptor (Homo sapiens, UniProt Q9H3N8)
# T1 construct: expressed in transfected cells; host or cells: SK-N-MC cells or COS7 cells, transient transfection with pH4R; cell membranes
# Test: Binding Assay on Recombinant Human Histamine H4 Receptor
# Conditions: competition binding with 3H-histamine (5 nM; KD 5 nM), membranes of SK-N-MC or COS7 cells expressing human H4 receptor; average of results; > = highest value tested
# Experimental: Biological Methods: Binding Assay on Recombinant Human Histamine H4 Receptor
# SK-N-MC cells or COS7 cells were transiently transfected with pH4R and grown in 150 cm^2 tissue culture dishes. Cells were washed with saline solution, scraped with a cell scraper and collected by centrifugation (1000 rpm, 5 min). Cell membranes were prepared by homogenization of the cell pellet in 20 mM Tris-HCl with a polytron tissue homogenizer for 10 sec at high speed. Homogenate was centrifuged at 1000 rpm for 5 min at 4° C. The supernatant was then collected and centrifuged at 20,000×g for 25 min at 4° C. The final pellet was resuspended in 50 mM Tris-HCl. Cell membranes were incubated with ^3H-histamine (5-70 nM) in the presence or absence of excess histamine (10,000 nM). Incubation occurred at room temperature for […]. Membranes were harvested by rapid filtration over Whatman GF/C filters and washed 4 times with ice-cold 50 mM Tris HCl. Filters were then dried, mixed with scintillant and counted for radioactivity. SK-N-MC or COS7 cells expressing human histamine H4 receptor were used to measure the affinity of binding of other compounds and their ability to displace ^3H-ligand binding by incubating the above-described reaction in the presence of various concentrations of inhibitor or compound to be tested. For competition binding studies using ^3H-histamine, Ki values were calculated, based on an experimentally determined KD value of 5 nM and a ligand concentration of 5 nM, according to Y.-C.
row,Structure (SMILES),pKi
1,"Cc1ccc2[nH]c(-c3ccc4c(c3)ncn4CCCCC3CCN(C)CC3)nc2c1C [Example 121, 4,5-Dimethyl-1′-[4-(1-methyl-piperidin-4-yl)-butyl]-1H,1′H-[2,5′]bibenzoimidazolyl]",5.52
2,"c1cc(-c2nc3cc4c(cc3[nH]2)OCO4)c2ccn(CCCCC3CCNCC3)c2c1 [Example 76, 6-[1-(4-Piperidin-4-yl-butyl)-1H-indol-4-yl]-5H-[1,3]dioxolo[4′,5′:4,5]-benzo[1,2-d]imidazole]",5.71
3,"CC(C)(C)c1ccc2[nH]c(-c3ccc4c(c3)c(Cl)cn4CCCC3CCNCC3)nc2c1 [Example 34, 5-tert-Butyl-2-[3-chloro-1-(3-piperidin-4-yl-propyl)-1H-indol-5-yl]-1H-benzoimidazole]",5.70
4,"Cc1cccc2[nH]c(-c3ccc4c(c3)CCN4CCCC3CCN(C)CC3)nc12 [Example 98, 4-Methyl-2-{1-[3-(1-methyl-piperidin-4-yl)-propyl]-2,3-dihydro-1H-indol-5-yl}-1H-benzoimidazole]",6.80
5,"CC(C)(C)c1ccc2[nH]c(-c3ccc4c(ccn4CCCN4CCNCC4)c3)nc2c1 [Example 63, 5-tert-Butyl-2-[1-(3-piperazin-1-yl-propyl)-1H-indol-5-yl]-1H-benzoimidazole]",5.78
6,"Cc1c(F)ccc2[nH]c(-c3ccc4c(ccn4CCCN4CCNCC4)c3)nc12 [Example 33, 5-Fluoro-4-methyl-2-[1-(3-piperazin-1-yl-propyl)-1H-indol-5-yl]-1H-benzoimidazole]",5.89
7,"Cc1c(F)ccc2[nH]c(-c3ccc4ncn(CCCCC5CCN(C)CC5)c4c3)nc12 [Example 45, 5-Fluoro-4-methyl-3′-[4-(1-methyl-piperidin-4-yl)-butyl]-1H,3′H-[2,5′]bibenzoimidazolyl]",5.78
8,"Fc1cc(F)c2nc(-c3cccc4c3ccn4CCCCC3CCNCC3)[nH]c2c1 [Example 116, 4,6-Difluoro-2-[1-(4-piperidin-4-yl-butyl)-1H-indol-4-yl]-1H-benzoimidazole]",5.48
9,"Cc1cccc2[nH]c(-c3ccc4c(ncn4CCCC4CCNCC4)c3C)nc12 [Example 111, 4,4′-Dimethyl-1′-(3-piperidin-4-yl-propyl)-1H,1′H-[2,5′]bibenzoimidazolyl]",6.32
10,"Cc1cccc2[nH]c(-c3cccc4c3ccn4CCCCC3CCNCC3)nc12 [Example 66, 4-Methyl-2-[1-(4-piperidin-4-yl-butyl)-1H-indol-4-yl]-1H-benzoimidazole]",5.93
11,"Cc1ccc2[nH]c(-c3ccc4c(c3)CCN4CCCC3CCNCC3)nc2c1C [Example 56, 4,5-Dimethyl-2-[1-(3-piperidin-4-yl-propyl)-2,3-dihydro-1H-indol-5-yl]-1H-benzoimidazole]",5.72
12,"COC(=O)c1ccc2nc(-c3cccc4c3c(Cl)cn4CCCCC3CCNCC3)[nH]c2c1 [Example 135, 2-[3-Chloro-1-(4-piperidin-4-yl-butyl)-1H-indol-4-yl]-3H-benzoimidazole-5-carboxylic acid methyl ester]",< 5.00
13,"Cc1ccc2[nH]c(-c3cc4ccn(CCCC5CCN(C)CC5)c4cc3Cl)nc2c1C [Example 103, 2-{6-Chloro-1-[3-(1-methyl-piperidin-4-yl)-propyl]-1H-indol-5-yl}-4,5-dimethyl-1H-benzoimidazole]",5.56
14,"Fc1ccc2[nH]c(-c3cccc4c3c(Cl)cn4CCCCC3CCNCC3)nc2c1F [Example 132, 2-[3-Chloro-1-(4-piperidin-4-yl-butyl)-1H-indol-4-yl]-4,5-difluoro-1H-benzoimidazole]",5.48
15,"Cc1cc(C)c2nc(-c3ccc4ccn(CCCCC5CCN(C)CC5)c4c3)[nH]c2c1 [Example 25, 4,6-Dimethyl-2-{1-[4-(1-methyl-piperidin-4-yl)-butyl]-1H-indol-6-yl}-1H-benzoimidazole]",6.46
16,"FC(F)(F)c1ccc2nc(-c3cccc4c3ccn4CCCCC3CCNCC3)[nH]c2c1 [Example 141, 2-[1-(4-Piperidin-4-yl-butyl)-1H-indol-4-yl]-6-trifluoromethyl-1H-benzoimidazole]",5.66
17,"Fc1cc2nc(-c3cccc4c3c(Cl)cn4CCCCC3CCNCC3)[nH]c2cc1F [Example 131, 2-[3-Chloro-1-(4-piperidin-4-yl-butyl)-1H-indol-4-yl]-5,6-difluoro-1H-benzoimidazole]",5.48
18,"Cc1c(F)ccc2[nH]c(-c3ccc4c(c3)CCN4CCCC3CCNCC3)nc12 [Example 93, 5-Fluoro-4-methyl-2-[1-(3-piperidin-4-yl-propyl)-2,3-dihydro-1H-indol-5-yl]-1H-benzoimidazole]",5.96
19,"Cc1ccc2[nH]c(-c3cccc4c3ccn4CCCCC3CCN(C)CC3)nc2c1C [Example 78, 4,5-Dimethyl-2-{1-[4-(1-methyl-piperidin-4-yl)-butyl]-1H-indol-4-yl}-1H-benzoimidazole]",6.81
20,"Cc1cc(C)c2nc(-c3cccc4c3ccn4CCCCC3CCNCC3)[nH]c2c1 [Example 139, 4,6-Dimethyl-2-[1-(4-piperidin-4-yl-butyl)-1H-indol-4-yl]-1H-benzoimidazole]",5.58
21,"CN1CCC(CCCCn2ccc3c(-c4nc5cc(Cl)ccc5[nH]4)cccc32)CC1 [Example 68, 5-Chloro-2-{1-[4-(1-methyl-piperidin-4-yl)-butyl]-1H-indol-4-yl}-1H-benzoimidazole]",6.46
22,"Clc1ccc2[nH]c(-c3cc4ccn(CCCC5CCNCC5)c4cc3Cl)nc2c1 [Example 101, 5-Chloro-2-[6-chloro-1-(3-piperidin-4-yl-propyl)-1H-indol-5-yl]-1H-benzoimidazole]",5.48
23,"Cc1c(F)ccc2[nH]c(-c3ccc4c(ncn4CCCC4CCNCC4)c3C)nc12 [Example 114, 5-Fluoro-4,4′-dimethyl-1′-(3-piperidin-4-yl-propyl)-1H,1′H-[2,5′]bibenzoimidazolyl]",6.69

# Compounds with a higher pKi, results first:
row,pKi,Structure (SMILES)
1,7.74,"Cc1c(-c2nc3c(C)cc(F)cc3[nH]2)ccc2c1CCN2CCCC1CCN(C)CC1 [Example 59, 6-Fluoro-4-methyl-2-{4-methyl-1-[3-(1-methyl-piperidin-4-yl)-propyl]-2,3-dihydro-1H-dihydro-1H-indol-5-yl}-1H-benzoimidazole]"
2,7.25,"Cc1ccc2[nH]c(-c3cnc4c(ccn4CCCC4CCN(C)CC4)c3)nc2c1C [Example 47, 4,5-Dimethyl-2-{1-[3-(1-methyl-piperidin-4-yl)-propyl]-1H-pyrrolo[2,3-b]pyridin-5-yl}-1H-benzoimidazole]"
3,6.92,"Cc1cccc2[nH]c(-c3ccc4c(ccn4CCCC4CCN(C)CC4)c3)nc12 [Example 12, 4-Methyl-2-{1-[3-(1-methyl-piperidin-4-yl)-propyl]-1H-indol-5-yl}-1H-benzoimidazole]"
4,7.54,"Cc1c(-c2nc3c(C)c(F)ccc3[nH]2)ccc2c1CCN2CCCC1CCN(C)CC1 [Example 1, 5-Fluoro-4-methyl-2-{4-methyl-1-[3-(1-methyl-pieridin-4-yl)-proyl]-2,3-dihydro-1H-indol-5-yl}-1H-benzoimidazole]"
5,6.91,"Cc1c(F)ccc2[nH]c(-c3ccc4c(c3F)CCN4CCCC3CCN(C)CC3)nc12 [Example 6, 5-Fluoro-2-{4-fluoro-1-[3-(1-methyl-piperidin-4-yl)-propyl]-2,3-dihydro-1H-indol-5-yl}-4-methyl-1H-benzoimidazole]"
6,9.52,"Cc1nc(-c2ccc3c(ncn3CCCC3CCN(C)CC3)c2C)[nH]c1-c1ccc(C(F)(F)F)cc1 [Example 82, 4-Methyl-1-[3-(1-methyl-piperidin-4-yl)-propyl]-5-[4-methyl-5-(4-trifluoromethyl-phenyl)-1H-imidazol-2-yl]-1H-benzoimidazole]"
7,7.64,"Cc1c(F)ccc2[nH]c(-c3cccc4c3ccn4CCCCC3CCN(C)CC3)nc12 [Example 16, 5-Fluoro-4-methyl-2-{1-[4-(1-methyl-piperidin-4-yl)-butyl]-1H-indol-4-yl}-1H-benzoimidazole]"
8,7.72,"Cc1c(-c2nc3cc(Cl)ccc3[nH]2)ccc2c1ccn2CCCC1CCN(C)CC1 [Example 10, 5-Chloro-2-{4-methyl-1-[3-(1-methyl-piperidin-4-yl)-propyl]-1H-indol-5-yl}-1H-benzoimidazole]"
9,9.00,"COc1ccc(-c2[nH]c(-c3ccc4c(ncn4CCCC4CCN(C)CC4)c3C)nc2C)cc1 [Example 143, 5-[5-(4-Methoxy-phenyl)-4-methyl-1H-imidazol-2-yl]-4-methyl-1-[3-(1-methyl-piperidin-4-yl)-propyl]-1H-benzoimidazole]"
10,8.15,"Cc1c(F)ccc2[nH]c(-c3ccc4c(ncn4CCCC4CCN(C)CC4)c3C)nc12 [Example 51, 5-Fluoro-4,4′-dimethyl-1′-[3-(1-methyl-piperidin-4-yl)-propyl]-1H,1′H-[2,5′]bibenzoimidazolyl]"
11,6.87,Cc1cc(C)c2nc(-c3ccc4c(ccn4CCCC4CCN(C)CC4)c3)[nH]c2c1 [Example 61]
12,7.07,"CN1CCC(CCCCn2ccc3c(-c4nc5cc(C(F)(F)F)ccc5[nH]4)cccc32)CC1 [Example 18, 2-{1-[4-(1-Methyl-piperidin-4-yl)-butyl]-1H-indol-4-yl}-5-trifluoromethyl-1H-benzoimidazole]"
